Experimental data: patent US9133105B2, “Transcription factor modulators” (C & C BIOPHARMA, LLC, priority 2013, dated 2015)

Key:
[1] = target: MEF2D and HDAC4 protein interactions (Homo sapiens (Human), UniProt Q14814); assay: Mammalian two-hybrid assay (GAL4-MEF2D / HDAC4-VP16 luciferase reporter); assay type: cell-based; details: for Relative Activity, I / IC50 / Inhibition of MEF2D/HDAC4 interactions (in words): HeLa cells; for Relative Activity, I: test compound 10 μM overnight, ratio X/Y versus DMSO control, expressed in percentile, low = strong inhibition; for IC50: concentration when X/Y equals 50; for Group: class by relative activity I at 10 μM; for Inhibition of MEF2D/HDAC4 interactions (in words): two-hybrid assay
Chain of MEF2D and HDAC4 protein interactions (Q14814 whole entry, species assumed, the tested form may be a part): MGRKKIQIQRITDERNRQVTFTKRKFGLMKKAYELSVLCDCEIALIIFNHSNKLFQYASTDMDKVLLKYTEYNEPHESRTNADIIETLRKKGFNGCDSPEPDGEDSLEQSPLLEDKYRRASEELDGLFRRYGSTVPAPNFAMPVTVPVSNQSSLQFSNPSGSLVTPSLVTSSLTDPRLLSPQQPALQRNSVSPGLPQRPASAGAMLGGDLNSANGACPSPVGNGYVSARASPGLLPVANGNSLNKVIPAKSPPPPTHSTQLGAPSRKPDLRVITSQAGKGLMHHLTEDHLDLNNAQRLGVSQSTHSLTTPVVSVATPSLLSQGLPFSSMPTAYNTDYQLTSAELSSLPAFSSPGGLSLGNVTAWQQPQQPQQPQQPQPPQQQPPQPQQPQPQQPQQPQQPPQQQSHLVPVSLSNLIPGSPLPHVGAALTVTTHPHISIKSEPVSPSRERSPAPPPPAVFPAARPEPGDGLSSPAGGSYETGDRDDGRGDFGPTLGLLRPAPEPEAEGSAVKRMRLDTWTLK
Description: Detection of MEF2D and HDAC4 interactions. In this mammalian two-hybrid assay, HDAC4 and MEF2D proteins were used as representative members of their respective protein families because the protein-protein interactions involved in the recruitment of class IIa HDACs by MEF2 were highly conserved. Two separate DNA constructs were made with MEF2D fused with the GAL4 DNA binding domain (GAL4-MEF2D) and with the MEF2-binding motif of HDAC4 (AA 155-220) fused with the viral transactivator VP-16 (HDAC4-VP16) (FIG. 1). Human epithelial carcinoma cells (HeLa) were co-transfected with the two DNA constructs (GAL4-MEF2D and HDAC4-VP16) and a reporter plasmid (Gal4Luc). […] MEF2D and HDAC4 protein interactions were detected as a result of the GAL4-MEF2D and HDAC4-VP16 protein complex binding a DNA promoter on the reporter plasmid (Gal4Luc) and driving cellular expression of a luciferase gene (FIG. 1). The measured luciferase protein signal was proportional to the amount of MEF2D and HDAC4 protein interactions occurring with the cell.
The relatively stronger signal from the GAL4VP16 positive control construct was probably due to the fact that the activation domain of VP16 was covalently linked to GAL4, whereas in the mammalian two-hybrid assay it was recruited by protein-protein interactions between HDAC4 and MEF2 (FIG. 2). This assay permitted the detection of the interactions between HDAC4 and MEF2D with minimal interference from endogenous factors. The HDAC4 fragment lacked the catalytic domain so that the deacetylase activity was excluded from the assay.
Detection of inhibition of MEF2D and HDAC4 interactions. Next, the assay was used to test whether the compounds could disrupt the interactions between MEF2D and HDAC4. After co-expressing the GAL4-MEF2D and HDAC4-VP16 DNA constructs and reporter plasmid, the HeLa cells were treated with a test compound (10 μM) overnight. Cells transfected with the positive control GAL4VP16 fusion construct and reporter plasmid were also treated with the test compound (10 μM) overnight. As another control, DMSO was added (but kept below 0.2% V/V) to cells transfected with the positive GAL4VP16 fusion construct or the GAL4-MEF2D and HDAC4-VP16 DNA constructs. A luciferase assay was performed as described above according to the manufacturer's protocol (Promega). The luciferase response was normalized against the Renilla Luciferase as an internal control.
The relative activity and IC50 calculations. […] The relative activity, I, was the ratio of former to later, i.e. X/Y, expressed in percentile. […] The IC50 was the concentration of the compounds when X/Y equals 50.

Nalm-6 leukemia cells = assay: Inhibition of Nalm-6 leukemia cell growth (CellTiter-Glo); assay type: cell-based; details: 72 hours treatment; for IC50: Homo sapiens, NALM-6
Description: Treatment of cells. Nalm-6 leukemia cells were grown to the logarithmic growth phase and seeded into 24-well plates. Plated cells were incubated at 37° C. in a 5% CO2 humidified incubator for 24 hours and treated with various concentrations of compounds. Treated cells were further incubated for 72 hours and then were examined for cell proliferation. Cell proliferation was determined using the CellTiter-Glo Luminescence Cell Viability assay (Promega Corporation, Madison, Wis.) according to the manufacturer's protocol. The calculated inhibition rate was determined with the following formula: Inhibition rate (%)=(1−Luminescence of experimental group/Luminescence of control group)×100. The 1050 was the calculated concentration of a compound needed to inhibit half of the maximum cell growth (equivalent to cell growth in control group) based on the corresponding dose-response curve under the described experimental conditions.

Relative Activity, I [1] | IC50 [1] | Group [1] | IC50 (Nalm-6 leukemia cells) | Inhibition of MEF2D/HDAC4 interactions (in words) [1] | Compound | Nalm-6 leukemia cell growth inhibition (in words) (Nalm-6 leukemia cells)
4.7 | 90 nM | A (A (I < 22 included)) | 1460 nM |  | Nc1ccccc1NC(=O)CCCCCC(=O)Nc1cccc(O)c1 [CC2, N^1-(2-aminophenyl)-N^7-(3-hydroxyphenyl)heptanediamide] | 
5.7 | 110 nM | A (A (I < 22 included)) | 1360 nM |  | Nc1ccccc1NC(=O)CCCCCC(=O)Nc1cncc(Br)c1 [CC7, N^1-(2-aminophenyl)-N^7-(5-bromopyridin-3-yl)heptanediamide] | 
79.5 |  | C (C (50 < I < 100 included)) | > 10000 nM | mild inhibitory effect | Nc1ccncc1NC(=O)CCCCCC(=O)Nc1cccc(Br)c1 [CC4, N^1-(4-aminopyridin-3-yl)-N^7-(3-bromophenyl)heptanediamide] | mild inhibitory effect
5.4 | 100 nM | A (A (I < 22 included)) | 2610 nM |  | Nc1ccccc1NC(=O)CCCCCC(=O)Nc1ccc(O)cc1 [CC3, N^1-(2-aminophenyl)-N^7-(4-hydroxyphenyl)heptanediamide] | 

The remaining lines, values behind:

Compound | Relative Activity, I [1] | IC50 [1] | Group [1] | IC50 (Nalm-6 leukemia cells) | Inhibition of MEF2D/HDAC4 interactions (in words) [1] | Nalm-6 leukemia cell growth inhibition (in words) (Nalm-6 leukemia cells)
Nc1ccccc1NC(=O)CCCCCNC(=O)c1ccc(Br)cc1 [CC5, N-(6-((2-aminophenyl)amino)-6-oxohexyl)-4-bromobenzamide] | 3.6 | 70 nM | A (A (I < 22 included)) | 1380 nM |  | 
Nc1ccccc1NC(=O)CCCCCC(=O)Nc1ccccc1Br [CC6, N^1-(2-aminophenyl)-N^7-(2-bromophenyl)heptanediamide] | 62.6 |  | C (C (50 < I < 100 included)) | 2050 nM | weaker inhibition | strong growth inhibition
Nc1ccccc1NC(=O)CCCCCC(=O)NCc1cccnc1 [CC1, N^1-(2-aminophenyl)-N^7-(pyridin-3-ylmethyl)heptanediamide] | 79.2 |  | C (C (50 < I < 100 included)) | > 10000 nM | mild inhibitory effect | mild inhibitory effect
